A melting point compilation (Tetko et al.; mined from patent text by program, amines drawn as free bases though some values may be those of a salt)

melting point	SMILES
111 to 113 °C	CC(C)n1nc(-c2sc(NC(=O)c3ccc(CNCCO)cc3)nc2-c2ccccc2)ccc1=O
124 °C	CC(C)N(CCC(c1ccccc1)c1cc(CO)ccc1OC(=O)c1ccc([N+](=O)[O-])cc1)C(C)C (centres undefined)
225 °C	Cc1ccc2c(=O)nc(-c3ccccn3)sc2c1
105 °C	COc1cccc2cc(C)c(-c3ccccc3)nc12
> 310 °C	COc1cc2c(=O)[nH]c3c(c2cc1OC)c1ccccc1n3C
315 to 316 °C	O=C1c2ccccc2-n2c1nc1ccc(Br)cc1c2=O
111 to 112 °C	COCC(=O)N(C)c1cccc(OCc2ccccc2)c1[N+](=O)[O-]
208 to 209 °C	CC(C)(C)C(NC(=O)c1ccc(Cl)cc1)NC(=NC#N)Nc1ccccc1F (centres undefined)
107 to 108 °C	CN1CCC(c2c(O)cc(O)c3c(=O)cc(-c4ccccc4Cl)oc23)C1CC#N (centres undefined)
165 to 170 °C	NC(=O)CC[C@H](NC(=O)OCc1ccccc1)C(=O)N[C@@H](Cc1ccc(O)cc1)C(=O)OCc1ccccc1
189 °C	N=C(Nc1nc(-c2ccccn2)nc2ccccc12)C(F)(F)F
110 °C	Clc1nc(Nc2ccc(OCc3ccccc3)c(Cl)c2)nc(NC2CCCCCC2)n1
356 to 358 °C	Cc1c(-c2ccccc2)sc2nc(N)[nH]c(=O)c12
165 to 166 °C	CCOC(=O)C(C)Oc1ccc2c(=O)c(-c3ccccc3)coc2c1 (centres undefined)
145 to 152 °C	O=C(O)Cc1ccc(OCc2ccccc2)cc1[N+](=O)[O-]
162 °C	CCCCc1nn2c(c1Cc1ccc(-c3ccccc3C(=O)O)cc1)CCCC2
205 °C	O=C(NCC(=O)N(c1ccccc1)c1ccccc1)c1ccc2ccccc2c1

melting point	SMILES
54 to 55 °C	CCCCOc1cc(C(CC(=O)OC)N2C(=O)c3ccccc3C2=O)ccc1OC (centres undefined)
188 °C	O=C1NC(=O)C(c2ccccc2)=C1Nc1cccc(Cl)c1
> 300 °C	O=c1[nH]c(=Cc2ccc(OCc3ccccc3)cn2)c(=O)[nH]c1=Cc1ccc([N+](=O)[O-])cc1
87 to 88 °C	COC(=O)c1ccc2oc(CCCc3cc4cc(C(=O)OC)ccc4o3)cc2c1
143 to 144 °C	CCOC(=O)c1c(NCC(=O)c2ccccc2)c2c(Cl)cc(Cl)cc2n1C(=O)OC(C)(C)C
208 to 209 °C	CC(=O)NC[C@H]1CN(c2ccc(N3CCN(C(=O)CCC(=O)c4ccc(Cl)cc4)CC3)c(F)c2)C(=O)O1
108 to 110 °C	Cn1c(-c2ccccc2)cc2cc(N)ccc21
196 to 198 °C	COc1ccc(-c2cc(CO)nn2-c2ccc(S(N)(=O)=O)cc2)cc1I
101 to 102 °C	O=C(O)Cn1cccc1Sc1ccccc1
206 to 207 °C	Cc1ccnc(C(=O)c2[nH]c3cc(Cl)ccc3c2NC(=O)[C@H](C)O)c1
90 to 92 °C	O=C(NCC1Cc2cc(Cl)cc(-c3ccsc3)c2O1)OCc1ccccc1 (centres undefined)
155 to 158 °C	COc1ccccc1N1CCN(CC(Cc2ccccc2)C(=O)O)CC1 (centres undefined)
83 °C	COC(=O)N1CCN(C(=O)N2CCC(c3cccnc3)C2)c2ccccc21 (centres undefined)
121 to 122 °C	CC(C)(C)OC(=O)NCc1ccc(OCCC2Oc3ccccc3N(Cc3ccc(Cl)cc3)C2=O)cc1 (centres undefined)
94 to 96 °C	CCOC(=O)NCCN1c2ccccc2N2CCc3cccc(c32)C1C (centres undefined)
63 °C	COC(=O)c1nc(C(=O)c2ccc(N)c(OC)c2)n2ccccc12
250 °C	COc1cc(NC(=O)OC(C)(C)C)c([N+](=O)[O-])cc1-c1ccc(F)cc1

Continued, molecule first:

SMILES	melting point
CC(=O)N(C#N)Cc1ccc(CN(C#N)C(C)=O)cc1	160 to 162 °C
CC(C)Nc1nc(Br)cnc1OCC(O)CBr (centres undefined)	108 to 109 °C
COc1cc(CNc2nc(C)nc(C)c2Cl)ccc1O	179 to 182 °C
C=C(C)COc1cc(C(=O)OC)ccc1OC	62 to 63 °C
Cc1cccc2nc(C(F)(F)F)n(C3CCC(=O)NC3=O)c(=O)c12 (centres undefined)	308 to 310 °C
CCSC(=S)SC1NC(=O)C1C(C)OC(C)=O (mixture of isomers)	101 to 105 °C
CC(=O)OC1CSC(Oc2ccc(-c3ccncc3)cc2F)C(OC(C)=O)C1OC(C)=O (centres undefined)	179 °C
N#Cc1ccc2c(c1)CCC=C2n1ccnc1	152 to 153 °C
CCCCNC(=O)c1ncc[nH]1	188 to 190 °C
CCNC(=O)n1nc(Oc2c(Cl)cc(C(F)(F)F)cc2Cl)c(CC)c1C	120 to 123 °C
CCCCCCCCCCCCCCCCCC(=O)NN(C(=O)CCCCCCCCCCCCCCCCC)C(=O)CCCCC(=O)NN	244 °C
CS(=O)c1ccc(-c2nn3c(c2-c2ccncc2)NCCC3)cc1 (centres undefined)	201 to 202 °C
CCOC(=O)CC[C@H](NC(=O)c1ccc(C=Cc2cnc3nc(NC(C)=O)nc(O)c3c2)cc1)C(=O)OCC	> 200 °C
O=C(O)COc1cc(Cl)sc1C(=O)O	214 °C
O=C1NC(=C(Br)c2ccccc2)C(=O)C1=NO	158 °C
COc1cc2ncnc(Nc3cc(Cl)c(O)c(Cl)c3)c2cc1OC	293 to 295 °C
COc1cc(NC(=O)C(C#N)=CNc2ccc(Br)c(OC)c2)c(Cl)cc1Cl	> 250 °C
CCCCCCCCCCC(Oc1ccc(C2=CCCCCCC2)cc1)C(=O)O (centres undefined)	45 to 48 °C
O=C(Nc1ccccc1)OC(c1cccnc1)C(Cl)(Cl)Cl (centres undefined)	146 °C
O=C(O)CCC(=O)c1ccc(NC(=O)c2ccc(F)cc2)cc1	253 to 255 °C
C=C(c1ccc(OC)cc1)c1cc(C(=C)c2ccc(OC)cc2)cc(C(=C)c2ccc(OC)cc2)c1	116 to 118 °C
COc1ccc(C#Cc2ccc(OC)cc2)cc1	140 to 142 °C

SMILES	melting point
CC(C)(O)C#Cc1ccc(C(=C2CC(C)(C)CC(C)(C)C2)c2ccc(O)cc2)cc1	186 to 187 °C
CCOC(=O)/C=C/c1sc(-n2cnc3ccccc32)nc1C(C)C	229 to 230 °C
CC(=O)N1CCCCc2ccc(C(=O)CCCl)cc21	106 to 107 °C
NC(=O)NCc1ccc(CNC(=O)[C@@H](CCCNC(N)=N[N+](=O)[O-])NC(=O)Nc2cccc3ccccc23)cc1	210 °C
CC(C)(C)c1ccc(-c2cc(=O)cc(N3CCOCC3)o2)cc1	156 °C
COC(=O)c1cc(Cl)sc1NC(C)=O	110 °C
C[C@H](COc1ccccc1)Nc1nc(F)nc2c1ncn2[C@@H]1O[C@H](CO)[C@@H](O)[C@H]1O	148 to 150 °C
CC(=O)OC1CSC(Oc2ccc(C)nc2-c2cccnc2)C(OC(C)=O)C1OC(C)=O (centres undefined)	92 to 102 °C
COc1ccc2c(c1)CCC1C2CCC2(C)C1CCC2N(C=O)CCOCCO (centres undefined)	134 to 135 °C
CSc1cc(Cl)ccc1C(=O)C(C#N)C(=O)c1cc(C(F)(F)F)cc(C(F)(F)F)c1 (centres undefined)	146 to 149 °C
CCOC(=O)c1ccc(N)c(Cl)c1	82 to 83 °C
C/C=C/C(=O)NCCn1c(CCCC)nc2c(N)nc3cccnc3c21	198 to 200 °C
CC(C)(C)NC(=O)Nc1ccc2oc3c(c2c1)CCCC3	310 to 312 °C
COc1cc(OC)nc(NC(=O)NS(=O)(=O)c2ccccc2-c2nnn(C)n2)n1	214 to 222 °C
COc1ccc2ncc(CO)c(OC(C)C)c2c1	66 to 68 °C
CNC(=O)N1N=C(c2ccc([N+](=O)[O-])cc2)c2cc(Cl)ccc2CC1C (centres undefined)	190 to 192 °C
Cc1ccc(OCc2c(F)cccc2Cl)c(N)n1	108 to 109 °C
CS(=O)(=O)c1ccc(-c2cnn(-c3cccs3)c(=O)c2-c2ccc(F)cc2)cc1	215 to 217 °C
CC1=CC(c2ccc(C(F)(F)F)cc2)C2=C(CCCC2=O)N1 (centres undefined)	116 to 118 °C
NCCCCCNc1ncc2ncnc(Nc3ccc(F)c(Cl)c3)c2n1	153 to 155 °C
CCCCCCCCCCCCCCCCCCOc1ccc(OCc2ccccc2)c(C(=O)N(CC(=O)OCC)CC(=O)OCC)c1	61 to 62 °C
CC1(C)CCC(C)(C)c2cc(-c3ccc(O)cc3)ccc21	137 to 140 °C

SMILES	melting point
O=C(CCC(=O)N1CCC(c2ccc(Cl)cc2)CC1)c1ccc2c(c1)CCN(C1CCCCC1)CC2	128 to 130 °C
O=C=Nc1ccc(Oc2cc(Cl)ncn2)cc1	103 °C
CCOC(=O)C1=C[C@H](c2ccc(C)cc2)[C@H](CO[Si](C)(C)C(C)(C)C)C(=O)O1	60 to 61 °C
Cc1nc(-c2cccc(NC(=O)N3CCc4c(cnc5[nH]ncc45)C3)c2)no1	> 140 °C
OC1C(COCC(F)(F)F)OC(n2cnc3c(NC4CCOCC4)ncnc32)C1O (centres undefined)	80 to 82 °C
COc1cc(Br)c(C2=NC(C)(C)CO2)cc1OC	49 to 51 °C
CC(=NO)C(C)(C)NOCCNC(C)(C)C(CCN1C(=O)c2ccccc2C1=O)=NO	74 to 75 °C
Cc1ccc2c(O)c3c(=O)[nH][nH]c(=O)c3nc2c1	> 395 °C
COc1cc(C#N)ccc1-c1cc2cc(Cl)c(Cl)cc2[nH]1	241 to 244 °C
CCOC(=O)C(=O)Nc1c([N+](=O)[O-])cc(C(C)=O)c2c1CCCC2	120 to 121 °C
CC1(C)OC(=S)N(c2cc(C#N)ccc2F)c2ccccc21	250 to 251 °C
CN(C)CCNC(=O)N1CCN(c2ccc(F)cc2)CC1	99 to 101 °C
O=CC(=Cc1ccc(Cl)cc1)C(C=O)=Cc1ccc(Cl)cc1	172 to 173 °C
O=C(O)[C@H](O)C1CCCCC1	124 to 126 °C
CN(Cc1ccc(S(C)=O)cc1)S(=O)(=O)c1cn(S(=O)(=O)N(C)C)c(C#N)n1 (centres undefined)	126 °C
C[C@@H](N(CC(=O)O)C(=O)c1ccc(C(F)(F)F)cc1F)[C@](O)(Cn1cncn1)c1ccc(F)cc1F (relative stereo)	191 to 192 °C
N#Cc1ccc(C=O)c(N2CCCC2)c1	121 °C
Cc1ccn(-c2ccc(C=O)cc2)n1	96 to 98 °C
Cc1ccc(OCCCCCCCCCCC(Cl)(Cl)C(=O)O)cc1	67 to 68 °C
CCOC(=O)C1=C(C)NC(N=CN(C)C)=C(C(=O)OCC)C1c1cccc(Cl)c1 (centres undefined)	150 °C
COS(=O)(=O)Oc1ccc(-c2cccc(-c3nc(C(C)C)[nH]c3-c3cccc(C)n3)c2)cc1	95 to 105 °C
